Earlier results in patent US11013777B2, “Aronia extract for enhancing reaction time and attention” (BioActor BV, priority 2017, dated 2021).

| Molecule | absorption in the small intestine (in vivo) | appearance in plasma post-ingestion (in vivo) | glucuronidated share of the total anthocyanins in plasma and urine (in vivo) | share of the total metabolites found in plasma (humans, plasma) |
| --- | --- | --- | --- | --- |
| anthocyanins | poor absorption | Thirty minutes post-ingestion, anthocyanins can be measured in plasma | approximately 55% | – |
| OC[C@H]1O[C@@H](Oc2cc3c(O)cc(O)cc3[o+]c2-c2ccc(O)c(O)c2)[C@H](O)[C@@H](O)[C@H]1O [cyanidin-3-galactoside] | – | – | – | around 65% |
